In experiment [1] the test system is SU-DHL-1. The experiment in a line: Cytotoxicity against human SUDHL1 cells assessed as cell growth at 100 nM incubated for 2.5 days by CCk8 assay relative to control. In kind it is functional. The settings on record: SU-DHL-1, 60 h.
Experiment [2] has as its system SU-DHL-1. The experiment in a line: Cytotoxicity against human SUDHL1 cells assessed as cell growth at 40 nM incubated for 2.5 days by CCk8 assay relative to control. The experiment is classed as functional. The settings on record: SU-DHL-1, 60 h.
For experiment [3], the system named is SU-DHL-1. The experiment in a line: Cytotoxicity against human SUDHL1 cells assessed as cell growth at 12 nM incubated for 2.5 days by CCk8 assay relative to control. The experiment is classed as functional. Particulars: SU-DHL-1, 60 h.
Experiment [4] has as its target T1, von Hippel-Lindau disease tumor suppressor/ALK tyrosine kinase receptor (Homo sapiens) (UniProt Q9UM73+P40337). The experiment in a line: Protac activity at VHL/ALK in human SUDHL1 cells assessed as increase in degradation of ALK at 30 nM by Western blot analysis relative to control. In kind it is cell-based. Background: In western blotting, separated proteins are transferred to a membrane and probed.

Experiment [5] concerns the target T1, von Hippel-Lindau disease tumor suppressor/ALK tyrosine kinase receptor (Homo sapiens). Description: Protac activity at VHL/ALK in human NCI-H3122 cells assessed as increase in degradation of ALK at 500 nM by Western blot analysis relative to control. In kind it is cell-based.

T1 sequence (P40337 whole entry partner): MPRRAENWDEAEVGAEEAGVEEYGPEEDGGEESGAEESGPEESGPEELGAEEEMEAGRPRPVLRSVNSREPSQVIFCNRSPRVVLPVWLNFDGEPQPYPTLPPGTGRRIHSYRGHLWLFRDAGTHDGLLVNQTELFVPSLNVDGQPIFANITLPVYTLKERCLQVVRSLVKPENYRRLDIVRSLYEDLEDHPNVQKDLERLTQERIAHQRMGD
T1 sequence (Q9UM73 19-1620 limits assumed): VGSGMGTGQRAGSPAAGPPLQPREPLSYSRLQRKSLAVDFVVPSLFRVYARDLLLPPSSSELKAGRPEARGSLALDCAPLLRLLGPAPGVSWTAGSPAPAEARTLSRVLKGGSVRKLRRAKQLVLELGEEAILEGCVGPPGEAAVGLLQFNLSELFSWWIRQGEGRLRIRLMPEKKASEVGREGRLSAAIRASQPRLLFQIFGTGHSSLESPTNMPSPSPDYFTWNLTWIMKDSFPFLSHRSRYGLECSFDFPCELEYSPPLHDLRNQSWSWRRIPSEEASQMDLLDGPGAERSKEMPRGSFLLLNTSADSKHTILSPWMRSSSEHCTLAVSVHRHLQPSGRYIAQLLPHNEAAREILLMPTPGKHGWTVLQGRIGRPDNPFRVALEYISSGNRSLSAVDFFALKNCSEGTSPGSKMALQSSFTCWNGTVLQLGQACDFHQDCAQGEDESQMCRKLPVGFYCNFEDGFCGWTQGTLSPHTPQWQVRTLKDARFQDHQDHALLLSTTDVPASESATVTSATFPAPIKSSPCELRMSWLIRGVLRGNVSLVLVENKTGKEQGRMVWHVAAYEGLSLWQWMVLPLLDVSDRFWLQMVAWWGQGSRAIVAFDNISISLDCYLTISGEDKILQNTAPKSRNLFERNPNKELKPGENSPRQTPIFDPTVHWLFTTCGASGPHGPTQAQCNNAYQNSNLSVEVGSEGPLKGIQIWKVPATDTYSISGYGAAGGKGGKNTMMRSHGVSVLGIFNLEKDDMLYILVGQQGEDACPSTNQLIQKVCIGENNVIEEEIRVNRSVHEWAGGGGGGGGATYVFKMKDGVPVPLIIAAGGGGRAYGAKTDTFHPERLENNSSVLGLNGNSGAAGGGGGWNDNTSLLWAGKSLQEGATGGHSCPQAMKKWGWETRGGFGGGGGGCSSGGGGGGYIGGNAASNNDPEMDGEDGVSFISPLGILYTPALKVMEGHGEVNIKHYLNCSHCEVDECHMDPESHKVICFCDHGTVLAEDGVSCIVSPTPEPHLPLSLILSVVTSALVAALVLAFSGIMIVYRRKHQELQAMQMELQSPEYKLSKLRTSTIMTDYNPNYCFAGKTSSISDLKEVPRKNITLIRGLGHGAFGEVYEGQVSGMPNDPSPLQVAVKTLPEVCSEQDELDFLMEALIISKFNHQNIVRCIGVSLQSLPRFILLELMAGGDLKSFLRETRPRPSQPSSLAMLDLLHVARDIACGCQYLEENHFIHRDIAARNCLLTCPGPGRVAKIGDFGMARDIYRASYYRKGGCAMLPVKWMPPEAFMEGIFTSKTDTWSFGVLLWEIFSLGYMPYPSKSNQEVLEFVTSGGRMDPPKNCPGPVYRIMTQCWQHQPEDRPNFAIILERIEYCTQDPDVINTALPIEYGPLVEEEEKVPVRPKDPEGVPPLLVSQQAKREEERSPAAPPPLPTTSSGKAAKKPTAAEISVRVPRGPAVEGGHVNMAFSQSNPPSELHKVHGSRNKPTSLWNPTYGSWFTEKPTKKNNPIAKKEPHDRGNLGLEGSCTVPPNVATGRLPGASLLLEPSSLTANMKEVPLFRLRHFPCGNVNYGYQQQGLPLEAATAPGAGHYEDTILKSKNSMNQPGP

As to `Cc1cc(Nc2ncc(Cl)c(Nc3ccccc3S(=O)(=O)C(C)C)n2)c(OC(C)C)cc1C1CCN(CC(=O)NCCNc2cccc3c2C(=O)N(C2CCC(=O)NC2=O)C3=O)CC1` (centres undefined), in the experiment on SU-DHL-1 [1], the growth, % of control at 0.1 µM came out at 2.1%. Also, the growth, % of control at 0.04 µM with SU-DHL-1 [2] was 30.5%. Besides, the growth, % of control at 0.012 µM in the experiment with SU-DHL-1 [3] is 80.6%. The Activity in experiment [4] is more than 80%.
For `Cc1cc(Nc2ncc(Cl)c(Nc3ccccc3S(=O)(=O)C(C)C)n2)c(OC(C)C)cc1C1CCN(C(=O)CCCC(=O)N[C@H](C(=O)N2C[C@H](O)C[C@H]2C(=O)N[C@@H](C)c2ccc(-c3scnc3C)cc2)C(C)(C)C)CC1`, in experiment [5], the Activity is more than 80%.
Regarding `Cc1cc(Nc2ncc(Cl)c(Nc3ccccc3S(=O)(=O)C(C)C)n2)c(OC(C)C)cc1C1CCN(C(=O)COCCOCC(=O)N[C@H](C(=O)N2C[C@H](O)C[C@H]2C(=O)N[C@@H](C)c2ccc(-c3scnc3C)cc2)C(C)(C)C)CC1`, the Activity in experiment [5] was more than 80%.
Turning to `Cc1cc(Nc2ncc(Cl)c(Nc3ccccc3S(=O)(=O)C(C)C)n2)c(OC(C)C)cc1C1CCN(CC(=O)NCCOCCOCCOCCOCCOCCNc2cccc3c2C(=O)N(C2CCC(=O)NC2=O)C3=O)CC1` (centres undefined), in the experiment with SU-DHL-1 [1], the growth, % of control at 0.1 µM is 3.9%. Further, in the experiment on SU-DHL-1 [2], the growth, % of control at 0.04 µM worked out at 47.5%. Moreover, the growth, % of control at 0.012 µM with SU-DHL-1 [3] came out at 94.5%. For the same compound, the Activity in experiment [4] was more than 80%.
As to `Cc1cc(Nc2ncc(Cl)c(Nc3ccccc3S(=O)(=O)C(C)C)n2)c(OC(C)C)cc1C1CCN(CC(=O)NCCOCCOCCOCCOCCNc2cccc3c2C(=O)N(C2CCC(=O)NC2=O)C3=O)CC1` (centres undefined), the growth, % of control at 0.1 µM in the experiment on SU-DHL-1 [1] stood at 3.5%. The growth, % of control at 0.04 µM in the experiment on SU-DHL-1 [2] is 67%. For the same compound, in the experiment with SU-DHL-1 [3], the growth, % of control at 0.012 µM was 97.7%. Besides, the Activity in experiment [4] is more than 80%.
